From patent US20210393932A1, “DERMAL PATCHES AND GLASS SWABS FOR APPLICATION OF TOPICAL IMMUNOSENSITIZERS” (Squarex, LLC, priority 2020, published 2021)

Experiments:
[1] = test system: PBMCs in the presence of HSV-1; assay: Immune gene expression and proliferation of PBMCs from subjects dosed once with SADBE; type: cell-based, human
Source text: Introduction: Differences in immune characteristics, including immune gene expression by peripheral blood mononuclear cells (PBMCs), correlating with herpes labialis and good or poor immune control of herpes simplex virus type 1 (HSV-1) (i.e., frequency of herpes labialis episodes), and how these characteristics change after dosing with squaric acid dibutyl ester (SADBE), were investigated. Methods: PBMCs were collected from persons positive for IgG against HSV-1 and having frequent (self-reported 6 or more episodes in the prior 12 months), infrequent (1 or 2 episodes in the prior 12 months), or no herpes labialis outbreaks in the prior 12 months. The PBMCs were tested for proliferation against HSV-1 and a fungal antigen (Candida) and immune gene expression in the presence of HSV-1 and Candida. On day 1 after blood collection the subjects with frequent outbreaks were dosed topically on the arm once with 2% SADBE in DMSO, and their PBMCs were collected and tested 2 weeks later and 8 weeks later.
(§1) Doses were applied by dipping a cotton swab in a 1-ml vial of liquid study medication, then swabbing a spot on the inner aspect of the upper arm over an area of about 10 to 15 mm diameter encircled by petroleum jelly. After application, the spot was covered by TEGADERM™ dressing, and subjects were advised to remove the dressing and wipe the spot with a wet cloth 3 hours later. The weight of the vial of study medication with the vial standing in it was measured immediately before and immediately after dosing each subject. The difference was the net mass of drug applied. In most cases, 10 mg to 20 mg of drug solution was applied to the arm.

[2] = test system: herpes labialis outbreaks; assay: Phase 2 multi-center placebo-controlled study of single dose SADBE in recurrent herpes labialis; type: in vivo, human
Description: After institutional review board approval and written informed consent, this study was conducted at five centers in subjects with four or more herpes labialis episodes in the previous 12 months. Subjects were randomized to receive either (1) one dose of 2% SADBE in DMSO on day 1, (2) 2% SADBE on day 1 and a second lower dose (0.5%) “booster” on day 22, or (3) dimethylsulfoxide (DMSO) vehicle only on days 1 and 22. All subjects were followed for 1 year.
as §1, with “blindly labeled 1 ml” for “1-ml”

mini pig skin = assay: Cutaneous irritation (Draize, Primary Irritation Index) after SADBE dermal patch in Gottingen mini-pig; type: in vivo, Gottingen miniswine; conditions: for Primary Irritation Index (pII) / Primary Irritation Index (pII), transient peak: 0-8 scale; for Primary Irritation Index (pII), transient peak: after the second dose; for duration of moderate levels of irritation / time to return to non-irritating levels post-dermal-application: re-challenge; for duration of severe cutaneous irritation: re-challenge at naive site
Description: A total of 6 Gottingen miniswine (3 female and 3 male) was used in this nonGLP study. Prior to dosing, the baseline body weights, group food consumption, and Draize scoring (see tables 1 and 2) for erythema and eschar formation and edema at the future dose site were recorded. A dermal patch (1 patch/animal) loaded with 20 microliters of 2, 6, or 18% SADBE drug solution was applied to animals, and left in place for ˜12 hours. Following the ˜12 hour dosing period, patch sites was assessed by Draize scoring as in Example 5, 5×/week for 21 days. […] After the 25 day assessment period, the animals were re-challenged and a second dosing and assessment phase performed for 30 days. At the end of the survival period, animals were humanely euthanized and a complete necropsy was performed. The test article vials used to prepare patches and mini-pig exposed patches were collected after application to determine SADBE content and SADBE degradation product squaric acid monobutyl ester (SAMBE) using HPLC at Squarex's Laboratory.
Cutaneous irritation at the test site was observed and scored each day of the study by the Draize Scale for both Erythema & Eschar and Edema. The scale for each is in Tables 9 and 10 in Example 5, each on a 0-4 scale. The cumulative Erythema & Eschar and Edema score was the Primary Irritation Index score, which would therefore be on a 0-8 scale.
The daily primary irritation index (pII) for each test article dose over the course of the study was calculated (FIG. 5). The pII is used to categorize the test article treatments as negligible to not irritating (0-0.9), slight (0.9-1.9), moderate (2-4.9) or severe (5-8) irritation potential.

[3] = single topical dose of 2% SADBE in DMSO to the arm, 56 days after dose vs day 1

## CCCCOc1c(OCCCC)c(=O)c1=O [SADBE, squaric acid dibutyl ester]
[1]; 2 weeks after the one dose of 2% SADBE
  PBMC gene expression or proliferation measures vs day 1: did not differ
[1]; [3]
  IFNG expression in PBMCs in the presence of HSV-1 virus: increasing
  IL5 expression in PBMCs in the presence of HSV-1 virus: decreasing
[2]; 1-dose group (2% SADBE in DMSO day 1) vs placebo, p=0.024
  time to next outbreak from day 43 to 121: superior to the placebo group
[2]; 1-dose group (9/39), placebo 46%, p=0.036
  proportion of subjects with an outbreak in days 43-121: 23%
[2]; 1-dose group, ± standard error, placebo 0.610±0.068, p=0.011
  mean number of outbreaks in days 43-121: 0.231±0.125
[2]; 1-dose, placebo 1.341±1.76, p=0.04
  average number of moderate or severe outbreaks over days 1-365: 0.641±0.931
[2]; 1 dose of SADBE, placebo 0.390±0.703, p=0.04
  average number of moderate or severe outbreaks over days 43-121: 0.128±0.339
[2]; 2% SADBE day 1 and 0.5% booster day 22
  outbreak measures vs placebo, 2-dose group: superior to placebo these same measures, but not significantly so
[2]; topical 2% SADBE
  severity of administration site reactions (most common adverse event): all mild or moderate
  time to resolution of administration site reactions: ≤ 3 months
Mini pig skin; 2% SADBE, 20 microliters patch, ~12 hours, first dose
  irritation category by Primary Irritation Index (pII): moderately irritating
Mini pig skin; 2% SADBE, after the first dose
  Primary Irritation Index (pII): ~3.5
Mini pig skin; 2% SADBE
  Primary Irritation Index (pII), transient peak: 5
  duration of moderate levels of irritation: ~17 days
  time to return to non-irritating levels post-dermal-application: ~22 days
  duration of severe cutaneous irritation: 1 to 2 days
Mini pig skin; 2% SADBE, induction
  duration of moderate cutaneous irritation: > 15 days
Mini pig skin; 2% SADBE, re-challenge (second dose)
  irritation category by Primary Irritation Index (pII): moderately-severely irritating
Mini pig skin; 6% SADBE, 20 microliters patch, ~12 hours, first dose
  irritation category by Primary Irritation Index (pII): moderately irritating
Mini pig skin; 6% SADBE, after the first dose
  Primary Irritation Index (pII): 3.0-4.0
Mini pig skin; 6% SADBE
  Primary Irritation Index (pII), transient peak: 5.5
  duration of moderate levels of irritation: ~19 days
  time to return to non-irritating levels post-dermal-application: ~22 days
  duration of severe cutaneous irritation: 1 days
Mini pig skin; 6% SADBE, induction
  duration of moderate cutaneous irritation: ~21 days
Mini pig skin; 6% SADBE, re-challenge (second dose)
  irritation category by Primary Irritation Index (pII): moderately-severely irritating
Mini pig skin; 18% SADBE, 20 microliters patch, ~12 hours, first dose
  irritation category by Primary Irritation Index (pII): moderately-severely irritating
Mini pig skin; 18% SADBE, first dose
  Primary Irritation Index (pII): ~5.0
Mini pig skin; 18% SADBE, induction
  duration of moderate-severe cutaneous irritation: ~22 days
Mini pig skin; 18% SADBE
  duration of moderate levels of irritation: ~24 days
  time to return to non-irritating levels post-dermal-application: ~26 days
  duration of severe cutaneous irritation: ~5 days
Mini pig skin; 18% SADBE, re-challenge (second dose)
  irritation category by Primary Irritation Index (pII): severely irritating
Mini pig skin; 18% SADBE, second dose
  Primary Irritation Index (pII): ~6
